Assay results reported in ChEMBL document CHEMBL1133310, “Naphthalene carboxamides as inhibitors of human cytomegalovirus DNA polymerase” (Bioorg Med Chem Lett, 2000).

The molecules below were run against T1, DNA polymerase alpha catalytic subunit (Homo sapiens, UniProt P09884) (assay: Compound was evaluated for the inhibitory activity against Human alpha polymerase). Details: not given.
T1 sequence (P09884 whole entry): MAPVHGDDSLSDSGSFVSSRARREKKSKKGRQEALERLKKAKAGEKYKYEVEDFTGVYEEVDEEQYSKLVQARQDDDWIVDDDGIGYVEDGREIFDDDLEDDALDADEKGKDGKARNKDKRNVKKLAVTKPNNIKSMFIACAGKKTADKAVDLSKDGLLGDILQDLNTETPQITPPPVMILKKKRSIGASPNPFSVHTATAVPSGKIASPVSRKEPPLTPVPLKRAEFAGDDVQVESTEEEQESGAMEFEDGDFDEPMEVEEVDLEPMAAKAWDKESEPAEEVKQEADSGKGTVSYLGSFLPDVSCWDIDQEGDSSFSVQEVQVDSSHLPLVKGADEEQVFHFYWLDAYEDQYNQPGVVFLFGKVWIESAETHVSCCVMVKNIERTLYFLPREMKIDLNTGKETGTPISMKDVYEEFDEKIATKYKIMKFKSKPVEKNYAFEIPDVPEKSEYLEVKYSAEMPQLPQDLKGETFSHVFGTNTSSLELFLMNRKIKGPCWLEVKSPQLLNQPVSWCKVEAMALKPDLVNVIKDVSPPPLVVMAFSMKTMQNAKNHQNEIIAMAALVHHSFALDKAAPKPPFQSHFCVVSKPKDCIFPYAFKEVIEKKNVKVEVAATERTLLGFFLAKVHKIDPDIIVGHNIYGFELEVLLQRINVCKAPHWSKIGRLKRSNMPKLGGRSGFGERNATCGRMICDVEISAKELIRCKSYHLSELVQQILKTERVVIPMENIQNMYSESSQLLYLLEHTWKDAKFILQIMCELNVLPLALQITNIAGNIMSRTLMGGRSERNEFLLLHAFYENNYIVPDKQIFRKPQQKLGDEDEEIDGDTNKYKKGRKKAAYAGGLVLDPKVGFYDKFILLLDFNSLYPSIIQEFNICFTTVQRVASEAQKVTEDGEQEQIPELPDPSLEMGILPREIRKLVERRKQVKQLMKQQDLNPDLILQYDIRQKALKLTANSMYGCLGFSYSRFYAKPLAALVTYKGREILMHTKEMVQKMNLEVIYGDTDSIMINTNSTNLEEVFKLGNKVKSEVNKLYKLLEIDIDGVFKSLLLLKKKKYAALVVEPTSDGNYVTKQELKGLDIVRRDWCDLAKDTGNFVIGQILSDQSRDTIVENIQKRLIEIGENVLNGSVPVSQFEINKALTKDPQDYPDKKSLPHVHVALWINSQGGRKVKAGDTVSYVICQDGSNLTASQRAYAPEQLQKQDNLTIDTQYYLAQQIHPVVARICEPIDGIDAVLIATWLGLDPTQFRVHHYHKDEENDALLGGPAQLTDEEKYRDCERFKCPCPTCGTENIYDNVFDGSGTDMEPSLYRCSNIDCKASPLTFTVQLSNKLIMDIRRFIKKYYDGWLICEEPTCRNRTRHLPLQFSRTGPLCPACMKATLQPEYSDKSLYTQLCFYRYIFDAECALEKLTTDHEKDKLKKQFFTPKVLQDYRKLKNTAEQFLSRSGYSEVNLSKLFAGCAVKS

SMILES	IC50 [nM]
O=C(Nc1cccc([N+](=O)[O-])c1)c1cc2ccccc2cc1O	32000

The molecules below were run on HFF (assay: Antiviral activity in a cell-based plaque reduction assay, using an HFF cell line and the Davis strain of HCMV). Details: Homo sapiens.
Format: functional

SMILES	IC50 [nM]
O=C(NCc1ccc([N+](=O)[O-])cc1)c1cc2cccc(O)c2cc1O	1500
O=C(NCc1ccc(Cl)cc1)c1cc2cccc(O)c2cc1O	600
O=C(NCCc1ccc(Cl)cc1)c1cc2ccccc2cc1O	> 20000
COc1ccc2cc(O)c(C(=O)Nc3nc4c(Cl)cccc4s3)cc2c1	> 5000
O=C(NCc1ccc(Cl)cc1)c1cc2cc(O)ccc2cc1O	1000
COc1ccc2cc(O)c(C(=O)NCc3ccc([N+](=O)[O-])cc3)cc2c1	3700
O=C(NCc1ccc(Cl)cc1)c1ccc2ccccc2c1O	> 20000
Nc1nc2c(ncn2COC(CO)CO)c(=O)[nH]1 [GANCICLOVIR]	600
